# Source: patent US20110300198A1, “HYDROCOLLOID - ESSENTIAL OIL PATCHES” (priority 2010, published 2011)
# Legend:
# [1] = Preliminary in-vivo experiment, constituents in blood (GC, WAX column); design: species or system rat
# [2] = Preliminary in-vivo experiment, constituents in urine (GC); details: male, Sprague-Dawley, rat, 7.5 % lavender essential oil in almond oil, collected urine sample, 84 h after the simulated massage
# Description: Male Sprague-Dawley rats, weighing 300-350 g, were used in the studies (Harlan, Rehovot, Israel). The experimental protocols were approved by the Hebrew University of Jerusalem Committee on the Use and Care of Animals. Rats were maintained under specified-pathogen-free (SPF) conditions and were allowed to acclimate to the environment for at least 7 days before their use in the study. Rats were anesthetized and the fur on their stomach shaved prior to exposure. […] Each rat was housed in an individual cage in order to prevent oral contamination of the essential oil by one rat eating another's patch. Blood samples (0.5 ml) were taken at 0, 12, 24, 36, 48 and 60 h from a nick at the tip of tail to determine contents of essential-oil components. Rats were restrained and the tail was gently massaged to facilitate blood collection. […] Urine samples were similarly analyzed by gas chromatography (GC).
# Similar values of camphor (FIG. 17) were detected following application of a lavender oil patch on the back and abdomen. […] In the blood of rats with an abdomen-adhered patch, more linalyl acetate was detected than in the blood of rats with a back patch. […] In a collected urine sample, 0.01265 mg L^−1 linalool and 0.00903 mg L^−1 linalyl acetate were detected. […] In addition, no traces of camphor were detected in the urine (note that the urine analysis was performed 84 h after the simulated massage).
# [3] = In-vivo experiment with HP-5 column, constituents in blood; design: species or system rat
# Description: Male Sprague-Dawley rats, weighing 300-350 g, were used in the studies (Harlan, Rehovot, Israel). The experimental protocols were approved by the Hebrew University of Jerusalem Committee on the Use and Care of Animals. Rats were maintained under specified-pathogen-free (SPF) conditions and were allowed to acclimate to the environment for at least 7 days before their use in the study. Rats were anesthetized and the fur on their stomach shaved prior to exposure. Gum karaya patches with and without lavender essential oil were applied to the rat's stomach skin. Each rat was housed in an individual cage in order to prevent oral contamination of the essential oil by one rat eating another's patch. Blood samples (0.5 ml) were taken at 0, 12, 24, 36, 48 and 60 h from a nick at the tip of tail to determine contents of essential-oil components. Rats were restrained and the tail was gently massaged to facilitate blood collection. Blood samples were collected in vials containing 0.1 ml heparin (100 kU, Sigma). A 10-μl volume of aqueous linalyl isovalerate stock solution was added as an internal standard to each blood sample and samples were stored at −80° C. After 60 h, patches were removed and the application site was wiped with 70% alcohol. Animals were sacrificed and the patch of stomach skin to which the essential oil patch had been applied was removed and minced into small pieces. The skin pieces were placed in 1 ml of ethanol containing linalyl isovalerate as the internal standard and sonicated for 30 min after heating to 50° C. A 10-μl aliquot was then injected straight into the gas chromatograph. A urine sample (0.5 ml) was obtained from the bladder immediately after sacrifice. Urine samples were similarly analyzed by gas chromatography (GC).
# Blood (0.5 ml) or phosphate buffer (0.5 ml) was collected at t=0, 12, 24, 36, 48 and 60 h. Blood samples were placed in Eppendorf heparin-coated glass vials (Agilent) by heparin-washed syringe, which were sealed with septa and screw caps. Each vial contained 100 μl of heparin and blood samples were frozen at −80° C. for storage. Prior to analysis, the blood or phosphate buffer was thawed to room temperature, a 10-μl volume of internal standards (6.5 mg linalyl isovalerate and 6.5 mg geranyl formate in 25 ml acetonitrile) was added to the vial and then the mixture was vortexed. The vials were tightly capped using a clear cap with septum. The septa were pre-punctured immediately before analysis using a needle to facilitate the insertion of the fiber sheath. The fiber sheath was inserted through the septum, and positioned to expose the fiber in the center of the headspace. The vial was placed on a heating block to maintain temperature at a constant 50° C. and the solid-phase microextraction (SPME) assembly was clamped securely. Absorption time was 30 min. No stirring was required. After absorption, the SPME fiber sheath was immediately transferred to the GC injector for desorption for 5 min and GC analysis.
# GC was performed on an Agilent 7890A gas chromatograph equipped with a split/splitless capillary injector, flame ionization detection (FID) system and GC Chem Station (Version B.03.01; Agilent Technologies 2007). Chromatography was carried out on a WAX or HP-5 column (30 m×0.32 mm×0.25 μm). The GC operating conditions were: splitless or split 1:40 injector 240° C., oven 50° C. for 1 min and then 10° C. min^−1 to 160° C., then 25° C. min^−1 to 240° C. and held for 6 min; the carrier gas was hydrogen.
# In this experiment, patches containing lavender essential oil were adhered to the abdomen area. Patches without essential oil served as blanks. […] Detection under splitless conditions facilitated the detection of linalyl acetate, linalool, camphor, borneol and α-terpineol, the latter two being additional constituents detected only under these conditions. High concentrations of linalool, borneol and camphor were detected, in comparison to low levels of terpeneol and linalyl acetate. […]
# [4] = Extraction of lavender essential oil constituents from the skin after patch application; format: in vivo; details: male, Sprague-Dawley, rat, 7.5 % lavender oil in patch, skin under 7.5% lavender oil patch, removed after 60 h, read-out: Concentration extracted from the skin
# Description: Male Sprague-Dawley rats, weighing 300-350 g, were used in the studies (Harlan, Rehovot, Israel). The experimental protocols were approved by the Hebrew University of Jerusalem Committee on the Use and Care of Animals. Rats were maintained under specified-pathogen-free (SPF) conditions and were allowed to acclimate to the environment for at least 7 days before their use in the study. Rats were anesthetized and the fur on their stomach shaved prior to exposure. Gum karaya patches with and without lavender essential oil were applied to the rat's stomach skin. Each rat was housed in an individual cage in order to prevent oral contamination of the essential oil by one rat eating another's patch. Blood samples (0.5 ml) were taken at 0, 12, 24, 36, 48 and 60 h from a nick at the tip of tail to determine contents of essential-oil components. Rats were restrained and the tail was gently massaged to facilitate blood collection. Blood samples were collected in vials containing 0.1 ml heparin (100 kU, Sigma). […] Urine samples were similarly analyzed by gas chromatography (GC).
# Skin to which patches with or without lavender essential oil were adhered were sampled for extraction. […] When a control patch was adhered to the skin, no constituents of lavender essential oil were detected. […]
# [5] = cited from earlier work
# [6] = male, Sprague-Dawley, rat, in vivo
Compound,Highest concentration in blood ([1]; 30 min after rubbing the skin with almond-lavender essential oil mixture),Highest concentration in blood ([1]; 36 h after a 7.5% lavender essential oil patch was adhered to the abdomen),Time for which the constituent was evident in the blood ([1]; after rubbing the skin with the almond-essential oil mixture),concentration at 84 h ([2]; topical),"Concentration observed in the blood [3, 6]","Highest value in blood [3, 6]","concentration at 60 h [3, 6]","concentration at 60 h ([4]; skin (ethanol extract of the application site), topical)",Solubility in water [5],Detection in blood ([1]; after rubbing with the almond-lavender oil mixture (massage)),concentration at 84 h ([2]; in vivo),Concentration observed in the blood ([3]; quoted for comparison with the skin extract),"concentration at 60 h ([4]; in vivo, ethanol extract)"
C=CC(C)(O)CCC=C(C)C (centres unmarked) [Linalool],0.32 mg/L,0.48 mg/L,80 min,12.7 ng/mL,0.099 mg/L,0.099 mg/L,53 ng/mL,62 ng/mL,relatively high,–,–,–,–
C=CC(C)(CCC=C(C)C)OC(C)=O (centres unmarked) [Linalyl acetate],–,–,–,–,–,–,–,–,relatively low,No linalyl acetate was detected,9.03 ng/mL,0.009 mg/L,241 ng/mL
